Source: paper PMC2697668 (Organic letters, 2009)

Biological target: recombinant yeast Hsp90
Experiment: ATPase inhibition assay
Format: biochemical, Saccharomyces cerevisiae
Details: read-out: ATPase; incubated with ATP

Question: For `C[C@@H]1C[C@H]2O[C@@H]2/C=C\C=C\C(=O)Cc2c(Cl)c(O)cc(O)c2C(=O)O1` [RDC], which IC50 is on record?
Answer: 400 nM
